Measured values: PubChem BioAssay AID2060893 (Molecular Pharmacology Branch, DTP, NCI, 2025)

System: K86415-001-R-J1-PDC complex spheroids, viability
Assay: Anticancer human tumor K86415-001-R-J1-PDC patient-derived lung adenocarcinoma cell line growth inhibition [RAS]
Details: for IC50: curve of first compound; for viability, T/C: stronger effect = lower value; active = viability on the fitted dose curve at most 10% of control; inactive = the rest
Summary of the method: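 Tumour cells grown as complex spheroids with HUVEC endothelial cells and mesenchymal stem cells, treated with RAS pathway inhibitor combinations. Each agent spans half-log steps from near clinical Cmax, or 10 microM where Cmax is unknown.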

[1] = second compound 0.000949 µM, first compound 0.00316 µM
[2] = second compound 0.000949 µM, first compound 0.01 µM
[3] = second compound 0.000949 µM, first compound 0.0316 µM
[4] = second compound 0.000949 µM, first compound 0.1 µM
[5] = second compound 0.000949 µM, first compound 0.316 µM
[6] = second compound 0.000949 µM, first compound 1 µM
[7] = second compound 0.003 µM, first compound 0.00316 µM
[8] = second compound 0.003 µM, first compound 0.01 µM
[9] = second compound 0.003 µM, first compound 0.0316 µM
[10] = second compound 0.003 µM, first compound 0.1 µM
[11] = second compound 0.003 µM, first compound 0.316 µM
[12] = second compound 0.003 µM, first compound 1 µM
[13] = second compound 0.00949 µM, first compound 0.00316 µM
[14] = second compound 0.00949 µM, first compound 0.01 µM
[15] = second compound 0.00949 µM, first compound 0.0316 µM
[16] = second compound 0.00949 µM, first compound 0.1 µM
[17] = second compound 0.00949 µM, first compound 0.316 µM
[18] = second compound 0.00949 µM, first compound 1 µM
[19] = second compound 0.03 µM, first compound 0.00316 µM
[20] = second compound 0.03 µM, first compound 0.01 µM
[21] = second compound 0.03 µM, first compound 0.0316 µM
[22] = second compound 0.03 µM, first compound 0.1 µM
[23] = second compound 0.03 µM, first compound 0.316 µM
[24] = second compound 0.03 µM, first compound 1 µM
[25] = second compound 0.0949 µM, first compound 0.00316 µM
[26] = second compound 0.0949 µM, first compound 0.01 µM
[27] = second compound 0.0949 µM, first compound 0.0316 µM
[28] = second compound 0.0949 µM, first compound 0.1 µM
[29] = second compound 0.0949 µM, first compound 0.316 µM
[30] = second compound 0.0949 µM, first compound 1 µM
[31] = second compound 0.3 µM, first compound 0.00316 µM
[32] = second compound 0.3 µM, first compound 0.01 µM
[33] = second compound 0.3 µM, first compound 0.0316 µM
[34] = second compound 0.3 µM, first compound 0.1 µM
[35] = second compound 0.3 µM, first compound 0.316 µM
[36] = second compound 0.3 µM, first compound 1 µM
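Note: spheroids exposed to agents for seven days before readout.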

C=CC(=O)Nc1cc(Nc2nccc(-c3cn(C)c4ccccc34)n2)c(OC)cc1N(C)CCN(C)C + CCn1c(-c2cccnc2C(C)OC)c2c3cc(ccc31)N1CCOC(CC(NC(=O)C(C(C)C)N(C)C(=O)C3(F)CCN(C(=O)C#CC(C)(C)N(C)C)CC3)C(=O)N3CCCC(N3)C(=O)OCC(C)(C)C2)C1
active: viability, T/C [9] 10.1% | viability, T/C [10] 8.82% | viability, T/C [11] 6.15% | viability, T/C [12] 5.63% | viability, T/C [15] 11.4% | viability, T/C [16] 7.32% | viability, T/C [17] 5.35% | viability, T/C [18] 5.16% | viability, T/C [21] 9.36% | viability, T/C [22] 8.38% | viability, T/C [23] 5.05% | viability, T/C [24] 4.02% | viability, T/C [27] 10.2% | viability, T/C [28] 8.51% | viability, T/C [29] 5.53% | viability, T/C [30] 5.3% | viability, T/C [33] 11.9% | viability, T/C [34] 5.28% | viability, T/C [35] 5.37% | viability, T/C [36] 4.83%
inactive: viability, T/C [1] 34.5% | viability, T/C [2] 31.8% | viability, T/C [3] 17% | viability, T/C [4] 25.6% | viability, T/C [5] 18.3% | viability, T/C [6] 9.09% | viability, T/C [7] 14.9% | viability, T/C [8] 11.9% | viability, T/C [13] 11.9% | viability, T/C [14] 11.1% | viability, T/C [19] 10.2% | viability, T/C [20] 11.1% | viability, T/C [25] 12.5% | viability, T/C [26] 11.2% | viability, T/C [31] 13.1% | viability, T/C [32] 11.4%
< 3.16 nM: IC50 (second compound 0.000949 µM) | IC50 (second compound 0.003 µM) | IC50 (second compound 0.00949 µM) | IC50 (second compound 0.03 µM) | IC50 (second compound 0.0949 µM) | IC50 (second compound 0.3 µM)

O=C(c1ccc(F)c(F)c1Nc1ccc(I)cc1F)N1CC(O)([C@@H]2CCCCN2)C1 + CCn1c(-c2cccnc2C(C)OC)c2c3cc(ccc31)N1CCOC(CC(NC(=O)C(C(C)C)N(C)C(=O)C3(F)CCN(C(=O)C#CC(C)(C)N(C)C)CC3)C(=O)N3CCCC(N3)C(=O)OCC(C)(C)C2)C1
active: viability, T/C [5] 6.3% | viability, T/C [6] 2.8% | viability, T/C [8] 8.85% | viability, T/C [9] 7.64% | viability, T/C [10] 7.02% | viability, T/C [11] 4.31% | viability, T/C [12] 2.26% | viability, T/C [14] 9.16% | viability, T/C [15] 7.57% | viability, T/C [16] 6.25% | viability, T/C [17] 3.49% | viability, T/C [18] 2.55% | viability, T/C [21] 12.8% | viability, T/C [22] 7.27% | viability, T/C [23] 2.71% | viability, T/C [24] 2.49% | viability, T/C [26] 9.53% | viability, T/C [27] 8.98% | viability, T/C [28] 6.47% | viability, T/C [29] 2.33% | viability, T/C [30] 1.78% | viability, T/C [33] 8.71% | viability, T/C [34] 5.63% | viability, T/C [35] 2.69% | viability, T/C [36] 2.11%
inactive: viability, T/C [1] 33.7% | viability, T/C [2] 29.1% | viability, T/C [3] 11.7% | viability, T/C [4] 15.2% | viability, T/C [7] 11.8% | viability, T/C [13] 11.9% | viability, T/C [19] 10.5% | viability, T/C [20] 8.81% | viability, T/C [25] 11.1% | viability, T/C [31] 12.8% | viability, T/C [32] 11%
< 3.16 nM: IC50 (second compound 0.000949 µM) | IC50 (second compound 0.003 µM) | IC50 (second compound 0.00949 µM) | IC50 (second compound 0.03 µM) | IC50 (second compound 0.0949 µM) | IC50 (second compound 0.3 µM)
